Experiments:
HeLa nuclear KDACs = assay: Fluor-de-Lys HDAC fluorometric activity assay with HeLa nuclear extract; format: biochemical; settings: HeLa nuclear extract, up to 20 µM; read-out: HDAC Inhibition IC50
Protocol: Total zinc-dependent KDAC (classes I, II and IV) activity was measured using the Fluor-de-Lys^TM HDAC fluorometric activity assay kit (BioMol, Exeter, UK), as per manufacturers protocol. Briefly, HeLa nuclear extract, potential inhibitor (5 nM–20 μM) and assay buffer were incubated in a 96-well fluorometric plate at 37 °C for 15 min. Acetylated substrate (100 μM) was added and the mixture incubated at 37 °C for a further 20 min. The developer was added and the mixture incubated at 37 °C for a further 15 min. Fluorescence was measured using a microplate reader (λex = 360 nm, λem = 460 nm). Percentage KDAC activity and thus KDAC inhibition was determined by quantification of fluorescence obtained in the presence versus absence of the respective inhibitor.

786-0 = assay: NCI-60 cytotoxicity screen; format: cell-based; settings: Homo sapiens, NCI-60, 48 h, renal
From the text: (§1) Compounds 3–7 were submitted to the US National Cancer Institute (NIH, Bethesda, Maryland) for screening against the NCI-60 panel of human cancer cell lines, as per standard protocol.

A549 = assay: NCI-60 cytotoxicity screen; format: cell-based; settings: Homo sapiens, NCI-60, 48 h, NSCLC
From the text: as §1

ACHN = assay: NCI-60 cytotoxicity screen; format: cell-based; settings: Homo sapiens, NCI-60, 48 h, renal
From the text: as §1

BT 549 = assay: NCI-60 cytotoxicity screen; format: cell-based; settings: Homo sapiens, NCI-60, 48 h, breast
From the text: as §1

CAKI-1 = assay: NCI-60 cytotoxicity screen; format: cell-based; settings: Homo sapiens, NCI-60, 48 h, renal
From the text: as §1

COLO205 = assay: NCI-60 cytotoxicity screen; format: cell-based; settings: Homo sapiens, COLO 205; NCI-60, 48 h, colon
From the text: as §1

DU-145 = assay: NCI-60 cytotoxicity screen; format: cell-based; settings: Homo sapiens, NCI-60, 48 h, prostate
From the text: as §1

EKVX = assay: NCI-60 cytotoxicity screen; format: cell-based; settings: Homo sapiens, NCI-60, 48 h, NSCLC
From the text: as §1

H23 = assay: NCI-60 cytotoxicity screen; format: cell-based; settings: Homo sapiens, NCI-60, 48 h, NSCLC
From the text: as §1

H460 = assay: NCI-60 cytotoxicity screen; format: cell-based; settings: Homo sapiens, NCI-60, 48 h, NSCLC
From the text: as §1

H522 = assay: NCI-60 cytotoxicity screen; format: cell-based; settings: Homo sapiens, NCI-60, 48 h, NSCLC
From the text: as §1

HCT116 = assay: NCI-60 cytotoxicity screen; format: cell-based; settings: Homo sapiens, HCT-116; NCI-60, 48 h, colon
From the text: as §1

HCT15 = assay: NCI-60 cytotoxicity screen; format: cell-based; settings: Homo sapiens, HCT-15; NCI-60, 48 h, colon
From the text: as §1

HL-60 = assay: NCI-60 cytotoxicity screen; format: cell-based; settings: Homo sapiens, NCI-60, 48 h, leukaemia
From the text: as §1

HOP-62 = assay: NCI-60 cytotoxicity screen; format: cell-based; settings: Homo sapiens, NCI-60, 48 h, NSCLC
From the text: as §1

HS 578 T = assay: NCI-60 cytotoxicity screen; format: cell-based; settings: Homo sapiens, NCI-60, 48 h, breast
From the text: as §1

IGROV-1 = assay: NCI-60 cytotoxicity screen; format: cell-based; settings: Homo sapiens, NCI-60, 48 h, ovarian
From the text: as §1

KM12 = assay: NCI-60 cytotoxicity screen; format: cell-based; settings: Homo sapiens, NCI-60, 48 h, colon
From the text: as §1

LOX IMVI = assay: NCI-60 cytotoxicity screen; format: cell-based; settings: Homo sapiens, NCI-60, 48 h, melanoma
From the text: as §1

M14 = assay: NCI-60 cytotoxicity screen; format: cell-based; settings: Homo sapiens, NCI-60, 48 h, melanoma
From the text: as §1

MCF-7 = assay: NCI-60 cytotoxicity screen; format: cell-based; settings: Homo sapiens, MCF7; NCI-60, 48 h, breast
From the text: as §1

MDA-MB-435 = assay: NCI-60 cytotoxicity screen; format: cell-based; settings: Homo sapiens, NCI-60, 48 h, melanoma
From the text: as §1

NCI/ADR-RES = assay: NCI-60 cytotoxicity screen; format: cell-based; settings: Homo sapiens, NCI-60, 48 h, ovarian
From the text: as §1

OVCAR-3 = assay: NCI-60 cytotoxicity screen; format: cell-based; settings: Homo sapiens, NCI-60, 48 h, ovarian
From the text: as §1

OVCAR-4 = assay: NCI-60 cytotoxicity screen; format: cell-based; settings: Homo sapiens, NCI-60, 48 h, ovarian
From the text: as §1

OVCAR-8 = assay: NCI-60 cytotoxicity screen; format: cell-based; settings: Homo sapiens, NCI-60, 48 h, ovarian
From the text: as §1

PC-3 = assay: NCI-60 cytotoxicity screen; format: cell-based; settings: Homo sapiens, NCI-60, 48 h, prostate
From the text: as §1

RPMI-8226 = assay: NCI-60 cytotoxicity screen; format: cell-based; settings: Homo sapiens, NCI-60, 48 h, leukaemia
From the text: as §1

RXF 393 = assay: NCI-60 cytotoxicity screen; format: cell-based; settings: Homo sapiens, NCI-60, 48 h, renal
From the text: as §1

SF-268 = assay: NCI-60 cytotoxicity screen; format: cell-based; settings: Homo sapiens, NCI-60, 48 h, CNS
From the text: as §1

SF-295 = assay: NCI-60 cytotoxicity screen; format: cell-based; settings: Homo sapiens, NCI-60, 48 h, CNS
From the text: as §1

SF-539 = assay: NCI-60 cytotoxicity screen; format: cell-based; settings: Homo sapiens, NCI-60, 48 h, CNS
From the text: as §1

SK-MEL-28 = assay: NCI-60 cytotoxicity screen; format: cell-based; settings: Homo sapiens, NCI-60, 48 h, melanoma
From the text: as §1

SK-MEL-2 = assay: NCI-60 cytotoxicity screen; format: cell-based; settings: Homo sapiens, NCI-60, 48 h, melanoma
From the text: as §1

SK-MEL-5 = assay: NCI-60 cytotoxicity screen; format: cell-based; settings: Homo sapiens, NCI-60, 48 h, melanoma
From the text: as §1

SN12C = assay: NCI-60 cytotoxicity screen; format: cell-based; settings: Homo sapiens, NCI-60, 48 h, renal
From the text: as §1

SNB-19 = assay: NCI-60 cytotoxicity screen; format: cell-based; settings: Homo sapiens, NCI-60, 48 h, CNS
From the text: as §1

SNB-75 = assay: NCI-60 cytotoxicity screen; format: cell-based; settings: Homo sapiens, NCI-60, 48 h, CNS
From the text: as §1

SR = assay: NCI-60 cytotoxicity screen; format: cell-based; settings: Homo sapiens, NCI-60, 48 h, leukaemia
From the text: as §1

SW620 = assay: NCI-60 cytotoxicity screen; format: cell-based; settings: Homo sapiens, SW-620; NCI-60, 48 h, colon
From the text: as §1

U251 = assay: NCI-60 cytotoxicity screen; format: cell-based; settings: Homo sapiens, U-251; NCI-60, 48 h, CNS
From the text: as §1

UACC-62 = assay: NCI-60 cytotoxicity screen; format: cell-based; settings: Homo sapiens, NCI-60, 48 h, melanoma
From the text: as §1

UO-31 = assay: NCI-60 cytotoxicity screen; format: cell-based; settings: Homo sapiens, NCI-60, 48 h, renal
From the text: as §1

Nc1ccccc1NC(=O)c1ccc(CNC(=O)OCc2cccnc2)cc1 [Compound 1, Entinostat, reference compound]
IC50 (HeLa nuclear KDACs): 3 ± 0.2 µM | IC50 (786-0): 4.97 µM | IC50 (A549): 3.28 µM | IC50 (ACHN): 2.33 µM | IC50 (BT 549): 4.14 µM | IC50 (CAKI-1): 1.17 µM | IC50 (COLO205): 2 µM | IC50 (DU-145): 2.26 µM | IC50 (EKVX): 3.26 µM | IC50 (H23): 3.22 µM | IC50 (H460): 0.83 µM | IC50 (H522): 0.7 µM | IC50 (HCT116): 0.8 µM | IC50 (HCT15): 8.47 µM | IC50 (HL-60): 0.85 µM | IC50 (HOP-62): 2.06 µM | IC50 (HS 578 T): 2.33 µM | IC50 (IGROV-1): 3.95 µM | IC50 (KM12): 4.31 µM | IC50 (LOX IMVI): 1.06 µM | IC50 (M14): 2.35 µM | IC50 (MCF-7): 0.64 µM | IC50 (MDA-MB-435): 0.96 µM | IC50 (NCI/ADR-RES): 2.38 µM | IC50 (OVCAR-3): 1.74 µM | IC50 (OVCAR-4): 1.31 µM | IC50 (OVCAR-8): 1.03 µM | IC50 (PC-3): 2.79 µM | IC50 (RPMI-8226): 0.9 µM | IC50 (RXF 393): 1.49 µM | IC50 (SF-268): 1.86 µM | IC50 (SF-295): 2.56 µM | IC50 (SF-539): 3.19 µM | IC50 (SK-MEL-28): 0.66 µM | IC50 (SK-MEL-2): 1.1 µM | IC50 (SK-MEL-5): 0.74 µM | IC50 (SN12C): 9.4 µM | IC50 (SNB-19): 6.34 µM | IC50 (SNB-75): 5.07 µM | IC50 (SR): 0.53 µM | IC50 (SW620): 1.3 µM | IC50 (U251): 2.03 µM | IC50 (UACC-62): 0.28 µM | IC50 (UO-31): 1.17 µM
